From patent US12227490B2, “Cereblon binding compounds, compositions thereof, and methods of treatment therewith” (Celgene Corporation, priority 2020, dated 2025)
Counter-ions that a name gives are not always drawn.

Biological target: T1, AR (androgen receptor) protein in VCaP cells (Homo sapiens, UniProt P10275)
T1 construct: endogenous in cells; host or cells: VCaP cells
T1 sequence (P10275 1-920): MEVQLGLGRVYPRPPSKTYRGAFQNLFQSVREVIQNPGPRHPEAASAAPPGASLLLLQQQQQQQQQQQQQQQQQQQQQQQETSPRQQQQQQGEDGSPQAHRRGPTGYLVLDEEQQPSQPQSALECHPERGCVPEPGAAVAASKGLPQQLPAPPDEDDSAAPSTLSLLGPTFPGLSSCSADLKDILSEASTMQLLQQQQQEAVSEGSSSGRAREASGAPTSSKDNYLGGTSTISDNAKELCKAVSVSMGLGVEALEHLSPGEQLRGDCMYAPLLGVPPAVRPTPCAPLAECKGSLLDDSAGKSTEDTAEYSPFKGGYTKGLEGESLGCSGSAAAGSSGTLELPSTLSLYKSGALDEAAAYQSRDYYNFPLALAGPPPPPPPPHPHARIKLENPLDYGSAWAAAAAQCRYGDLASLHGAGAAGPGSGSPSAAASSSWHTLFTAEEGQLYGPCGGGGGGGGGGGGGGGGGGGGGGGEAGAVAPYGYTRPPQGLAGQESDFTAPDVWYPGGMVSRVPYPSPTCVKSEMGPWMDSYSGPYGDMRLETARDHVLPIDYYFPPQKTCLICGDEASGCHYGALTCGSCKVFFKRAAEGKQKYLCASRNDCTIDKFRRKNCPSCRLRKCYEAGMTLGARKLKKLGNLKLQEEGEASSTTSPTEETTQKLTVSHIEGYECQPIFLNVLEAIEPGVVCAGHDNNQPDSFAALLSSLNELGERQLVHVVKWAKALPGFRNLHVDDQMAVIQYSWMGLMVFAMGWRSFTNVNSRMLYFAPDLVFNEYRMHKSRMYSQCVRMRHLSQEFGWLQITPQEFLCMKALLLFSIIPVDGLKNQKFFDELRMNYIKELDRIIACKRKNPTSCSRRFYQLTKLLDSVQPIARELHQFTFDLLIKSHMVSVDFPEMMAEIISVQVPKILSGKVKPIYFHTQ
Assay: VCAP AR Degradation Assay
Assay type: cell-based
Conditions: 24 h, AR ELISA; for DC50: concentration of compound when AR level = 50% of DMSO control; for remaining activity at up to 5 µM: top concentration 5 μM, read-out: Y (lowest measured AR level normalized to DMSO control, AR degradation efficiency)
Procedure: VCAP AR Degradation Assay. Test compounds were pre-dispensed into a Corning CellBind 96-well clear bottom plate (Cat #3300) using an acoustic dispenser to make a 10-point concentration series at 1:3 dilution for each compound. The final top concentration of each compound was 5 μM. DMSO at a final concentration of 0.1% was used as a control. VCaP cells cultured in DMEM with 8% fetal bovine serum (FBS) were seeded at 50K cells per well in a 200 μL volume into the compound plate and incubated at 37° C. in a CO2 incubator for 24 h. The medium was carefully removed from the cells and the plate was placed on ice. One hundred μL of ice-cold 1× cell lysis buffer from Cell Signaling Technologies (Cat #9803) was added to each well of the cells and the plate was incubated at 4° C. on a shaker for 1 h. Fifteen μL of cell lysate was used for AR ELISA detection using a PathScan Total Sandwich AR ELISA kit (Cell Signaling Technology, Cat #12580). AR levels in compound-treated wells were normalized to that of DMSO control and expressed as percent of control (PoC) (y). A Four Parameter Logistic Model (Sigmoidal Dose-Response Model) was used to determine the compound's DC50, and EC50, using the following equation: y=(A+((B−A)/(1+((C/x)^D)))) • A=YMin (lowest AR level normalized to DMSO control in response to compound treatment, as determined by curve fit) • B=YMax (maximum AR level as determined by curve fit) • C=EC50 • D=Hill Slope • x=compound concentration • EC50=the concentration of compound when y=(YMax−YMin)/2 • DC50=the concentration of the compound when y=50% of DMSO control (50% AR degradation) • y=AR protein level normalized to DMSO control
The lowest measured AR level normalized to DMSO control in response to compound treatment, termed Y value, was used to characterize the compound-mediated AR degradation efficiency.

Compound	DC50 [nM]	remaining activity at up to 5 µM [%]
C[C@@H]1C[C@H](OCCC[C@H]2CC[C@H](N3C(=S)N(c4ccc(C#N)c(C(F)(F)F)c4)C(=O)C3(C)C)CC2)C[C@H](C)N1CC(=O)Nc1cccc2c(C3CCC(=O)NC3=O)nn(C)c12 (stereo partly drawn) [Cmpd 23, 2-((2R,4r,6S)-4-(3-((trans)-4-(3-(4-Cyano-3-(trifluoromethyl)phenyl)-5,5-dimethyl-4-oxo-2-thioxoimidazolidin-1-yl)cyclohexyl)propoxy)-2,6-dimethylpiperidin-1-yl)-N-(3-(2,6-dioxopiperidin-3-yl)-1-methyl-1H-indazol-7-yl)acetamide]	20 to 100	0 to 25
C[C@@H]1CN(CCC[C@H]2CC[C@H](N3C(=S)N(c4ccc(C#N)c(C(F)(F)F)c4)C(=O)C3(C)C)CC2)C[C@H](C)N1CC(=O)Nc1cccc2c(C3CCC(=O)NC3=O)nn(C)c12 (stereo partly drawn) [Cmpd 2, 2-((2R,6S)-4-(3-(trans-4-(3-(4-cyano-3-(trifluoromethyl)phenyl)-5,5-dimethyl-4-oxo-2-thioxoimidazolidin-1-yl)cyclohexyl)propyl)-2,6-dimethylpiperazin-1-yl)-N-(3-(2,6-dioxopiperidin-3-yl)-1-methyl-1H-indazol-7-yl)acetamide hydrochloride]	2 to 5	30 to 50
C[C@@H]1C[C@H](OCC[C@H]2CC[C@H](N3C(=S)N(c4ccc(C#N)c(C(F)(F)F)c4)C(=O)C3(C)C)CC2)C[C@H](C)N1CC(=O)Nc1cccc2c(C3CCC(=O)NC3=O)nn(C)c12 (stereo partly drawn) [Cmpd 26, 2-((2R,4r,6S)-4-(2-((trans)-4-(3-(4-Cyano-3-(trifluoromethyl)phenyl)-5,5-dimethyl-4-oxo-2-thioxoimidazolidin-1-yl)cyclohexyl)ethoxy)-2,6-dimethylpiperidin-1-yl)-N-(3-(2,6-dioxopiperidin-3-yl)-1-methyl-1H-indazol-7-yl)acetamide]	5 to 20	0 to 25
C[C@@H]1CN(CCO[C@H]2CC[C@H](N3C(=S)N(c4ccc(C#N)c(C(F)(F)F)c4)C(=O)C3(C)C)CC2)C[C@H](C)N1CC(=O)Nc1cccc2c(C3CCC(=O)NC3=O)nn(C)c12 (stereo partly drawn) [Cmpd 1, 2-((2S,6R)-4-(2-((trans-4-(3-(4-Cyano-3-(trifluoromethyl)phenyl)-5,5-dimethyl-4-oxo-2-thioxoimidazolidin-1-yl)cyclohexyl)oxy)ethyl)-2,6-dimethylpiperazin-1-yl)-N-(3-(2,6-dioxopiperidin-3-yl)-1-methyl-1H-indazol-7-yl)acetamide hydrochloride]	< 2	0 to 25
C[C@@H]1C[C@H](OCC[C@H]2CC[C@H](N3C(=S)N(c4cnc(C#N)c(C(F)(F)F)c4)C(=O)C3(C)C)CC2)C[C@H](C)N1CC(=O)Nc1cccc2c(C3CCC(=O)NC3=O)nn(C)c12 (stereo partly drawn) [Cmpd 25, 2-((2R,4r,6S)-4-(2-((trans)-4-(3-(6-Cyano-5-(trifluoromethyl)pyridin-3-yl)-5,5-dimethyl-4-oxo-2-thioxoimidazolidin-1-yl)cyclohexyl)ethoxy)-2,6-dimethylpiperidin-1-yl)-N-(3-(2,6-dioxopiperidin-3-yl)-1-methyl-1H-indazol-7-yl)acetamide]	2 to 5	0 to 25
C[C@@H]1C[C@H](CCO[C@H]2CC[C@H](N3C(=S)N(c4cnc(C#N)c(C(F)(F)F)c4)C(=O)C3(C)C)CC2)C[C@H](C)N1CC(=O)Nc1cccc2c(C3CCC(=O)NC3=O)nn(C)c12 (stereo partly drawn) [Cmpd 15, 2-((2R,4r,6S)-4-(2-(((trans)-4-(3-(6-Cyano-5-(trifluoromethyl)pyridine-3-yl)-5,5-dimethyl-4-oxo-2-thioxoimidazolidin-1-yl)cyclohexyl)oxy)ethyl)-2,6-dimethylpiperidin-1-yl)-N-(3-(2,6-dioxopiperidin-3-yl)-1-methyl-1H-indazol-7-yl)acetamide]	< 2	0 to 25
